According to patent publication US11352338B2, “Substituted isoindolinones” (BioTheryX, Inc., priority 2018, dated 2022):

How the values were obtained:
PDE6D = molecular target: T1, PDE6D (Homo sapiens, UniProt O43924+Q96SW2); assay: Western blot, degradation of cellular PDE6D in MV-4-11 cells; assay type: cell-based; settings: MV4-11; tested at 1 μM, MV-4-11 cells, 6-8 hours; read-out: % Degradation compared to DMSO, PDE6D
T1 construct: endogenous in cells; host or cells: MV-4-11
Procedure: (§1) MV-4-11 cells were grown in RPMI 1640 media supplemented with 10% fetal bovine serum, streptomycin and penicillin.
(§2) Cells were cultured at approximately 10^6 cells per mL and incubated in DMSO or the indicated compounds for 6-8 hours. Whole cell extracts were prepared using RIPA lysis buffer according to manufacturer's protocol (Pierce). Briefly, 4×10^6 cells were washed once in PBS, the cell pellets were resuspended in RIPA lysis buffer and allowed to incubate for 15 minutes on ice. Cells debris was removed by centrifugation and the cleared whole cell lysates were transferred to new tubes for further analysis.
(§3) For Western blot analysis, whole cell protein extracts were separated on 4-12% SDS-polyacrylamide gels, transferred to nitrocellulose and probed with the indicated primary antibodies. Membranes were subsequently washed and probed with the appropriate IRDye secondary antibodies (LI-COR). The signal was detected using the Odyssey Imaging System (LI-COR).
(§4) The following antibodies were used in these studies: Anti-PDE6D antibody: Santa Cruz Biotechnology, sc-166854 (Dallas, Tex.); Anti-Ikaros: Abcam, ab191394 (Cambridge, Mass.); anti-CK1α antibody: Abcam, ab108296 (Cambridge, Mass.); β-Actin (8H10D10) mouse monoclonal antibody: Cell Signaling Technology, #3700 (Danvers, Mass.); IRDye 680RD Goat anti-rabbit antibody: LI-COR, 926-68071 (Lincoln, Nebr.); and IRDye 800CW Goat anti-mouse antibody: LI-COR, 926-32210 (Lincoln, Nebr.).
(§5) The % degradation values are reported as “A”, “B”, “C”, or “D.” “A” represents a % degradation value of less than 25% (value<25%); “B” represents a % degradation value of equal to or more than 25% and less than 50% (25%≤value<50%); “C” represents a % degradation value of equal to or more than 50% and less than 75% (50%≤value<75%); and “D” represents a % degradation value of equal to or more than 75% (value≥75%). […] was used as control.

Ikaros = molecular target: T2, Ikaros (Homo sapiens, UniProt Q13422+Q96SW2); assay: Western blot, degradation of cellular Ikaros in MV-4-11 cells; assay type: cell-based; settings: MV4-11, tested at 1 μM, 6-8 hours, read-out: % Degradation compared to DMSO, Ikaros
T2 construct: endogenous in cells; host or cells: MV-4-11
T2 sequence (Q13422 whole entry): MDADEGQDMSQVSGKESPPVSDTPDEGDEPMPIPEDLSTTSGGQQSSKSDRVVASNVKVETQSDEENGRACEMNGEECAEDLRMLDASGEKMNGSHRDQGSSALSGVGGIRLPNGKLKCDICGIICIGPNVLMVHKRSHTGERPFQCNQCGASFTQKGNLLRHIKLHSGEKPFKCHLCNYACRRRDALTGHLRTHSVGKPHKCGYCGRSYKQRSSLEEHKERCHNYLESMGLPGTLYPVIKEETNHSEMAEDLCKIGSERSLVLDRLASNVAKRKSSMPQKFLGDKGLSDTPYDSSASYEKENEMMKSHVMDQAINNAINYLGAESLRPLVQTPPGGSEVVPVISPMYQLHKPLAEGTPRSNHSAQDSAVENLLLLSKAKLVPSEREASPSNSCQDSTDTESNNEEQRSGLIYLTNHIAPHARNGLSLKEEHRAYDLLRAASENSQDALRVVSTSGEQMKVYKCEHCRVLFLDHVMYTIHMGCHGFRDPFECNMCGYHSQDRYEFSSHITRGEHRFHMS
T2 sequence (Q96SW2 whole entry): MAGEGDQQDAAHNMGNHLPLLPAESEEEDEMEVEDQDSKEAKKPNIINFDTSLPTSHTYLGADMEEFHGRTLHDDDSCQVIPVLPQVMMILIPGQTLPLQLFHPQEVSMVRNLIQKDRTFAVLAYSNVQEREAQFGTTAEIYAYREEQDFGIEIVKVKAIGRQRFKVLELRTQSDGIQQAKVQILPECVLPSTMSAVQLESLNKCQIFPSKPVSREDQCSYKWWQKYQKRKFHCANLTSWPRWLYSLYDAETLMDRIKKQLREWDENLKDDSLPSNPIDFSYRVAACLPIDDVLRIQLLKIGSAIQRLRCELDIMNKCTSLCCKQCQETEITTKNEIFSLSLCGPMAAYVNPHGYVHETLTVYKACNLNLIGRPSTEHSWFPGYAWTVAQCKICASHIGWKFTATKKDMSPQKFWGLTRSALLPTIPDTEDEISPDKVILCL
T2 sequence (Q16531 whole entry partner): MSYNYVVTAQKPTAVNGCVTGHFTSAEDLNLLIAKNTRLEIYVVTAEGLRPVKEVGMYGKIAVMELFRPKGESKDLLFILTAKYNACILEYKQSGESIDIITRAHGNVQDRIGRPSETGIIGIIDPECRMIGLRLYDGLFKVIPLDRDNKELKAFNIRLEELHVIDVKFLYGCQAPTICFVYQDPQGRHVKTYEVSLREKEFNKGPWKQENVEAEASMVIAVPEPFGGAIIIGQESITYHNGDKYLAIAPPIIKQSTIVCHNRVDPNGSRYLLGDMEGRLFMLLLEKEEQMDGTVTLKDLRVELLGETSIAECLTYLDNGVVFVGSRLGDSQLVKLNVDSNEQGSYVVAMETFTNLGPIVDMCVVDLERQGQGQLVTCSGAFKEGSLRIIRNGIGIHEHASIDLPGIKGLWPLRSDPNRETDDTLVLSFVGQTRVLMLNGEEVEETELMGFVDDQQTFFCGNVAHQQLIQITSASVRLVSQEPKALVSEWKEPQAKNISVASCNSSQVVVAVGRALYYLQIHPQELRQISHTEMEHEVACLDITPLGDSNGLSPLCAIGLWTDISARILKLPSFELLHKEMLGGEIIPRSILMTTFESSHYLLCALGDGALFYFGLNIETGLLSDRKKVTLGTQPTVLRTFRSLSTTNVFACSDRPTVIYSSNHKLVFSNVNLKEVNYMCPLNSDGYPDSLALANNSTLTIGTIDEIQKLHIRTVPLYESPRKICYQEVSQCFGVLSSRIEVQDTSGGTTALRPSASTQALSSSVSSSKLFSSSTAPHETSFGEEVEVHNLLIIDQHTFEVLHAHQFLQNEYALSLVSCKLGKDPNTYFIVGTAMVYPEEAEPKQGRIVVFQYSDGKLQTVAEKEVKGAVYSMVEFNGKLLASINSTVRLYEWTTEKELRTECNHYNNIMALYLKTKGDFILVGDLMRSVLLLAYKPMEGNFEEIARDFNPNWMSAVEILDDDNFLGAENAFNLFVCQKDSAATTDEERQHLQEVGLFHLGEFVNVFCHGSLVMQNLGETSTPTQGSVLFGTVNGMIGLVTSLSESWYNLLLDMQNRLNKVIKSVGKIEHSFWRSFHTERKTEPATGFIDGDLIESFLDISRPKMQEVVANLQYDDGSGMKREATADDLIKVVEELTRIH
Procedure: as §1, §2, §3, §4, §5

TNFα = TNFα inhibition, LPS-induced PBMCs or CD14+ monocytes, Meso Scale assay; assay type: cell-based; settings: LPS 100 ng/mL 18-24 h, read-out: % Inhibition compared to DMSO, TNFα; for inhibition at 1 µM: tested at 1 μM; for inhibition at 10 µM: tested at 10 μM
Procedure: (§6) Either frozen primary blood mononuclear cells (PBMCs) or frozen CD14+ mobilized peripheral blood monocytes were purchased from AllCells (PB003F, Normal Peripheral Blood MNC (Alameda, Calif.)). Cells were quick thawed, washed 1-time with RPMI-1640 (10% FBS/1% Pen-Strep) and plated in 96 well plates at 200,000 cells per well. Cells were pretreated with DMSO only or with the indicated compound for 1 h and then induced with 100 ng/mL lipopolysaccharide (LPS) for 18-24 h. The supernatant was analyzed for IL-1β, IL-6, and TNFα, using Meso Scale assay according to manufacturer's protocol. The negative control wells were treated with DMSO.
(§7) IL-1β, IL-6 and TNFα activities were tested at two different concentrations (1 μM and 10 μM) and the results are shown in Tables 2 and 3 respectively.

CK1α = molecular target: T3, CK1α (Homo sapiens, UniProt P48729+Q96SW2); assay: Western blot, degradation of cellular CK1α in MV-4-11 cells; assay type: cell-based; settings: MV4-11, tested at 1 μM, 6-8 hours, read-out: % Degradation compared to DMSO, CK1α
T3 construct: endogenous in cells; host or cells: MV-4-11
T3 sequence (P48729 whole entry): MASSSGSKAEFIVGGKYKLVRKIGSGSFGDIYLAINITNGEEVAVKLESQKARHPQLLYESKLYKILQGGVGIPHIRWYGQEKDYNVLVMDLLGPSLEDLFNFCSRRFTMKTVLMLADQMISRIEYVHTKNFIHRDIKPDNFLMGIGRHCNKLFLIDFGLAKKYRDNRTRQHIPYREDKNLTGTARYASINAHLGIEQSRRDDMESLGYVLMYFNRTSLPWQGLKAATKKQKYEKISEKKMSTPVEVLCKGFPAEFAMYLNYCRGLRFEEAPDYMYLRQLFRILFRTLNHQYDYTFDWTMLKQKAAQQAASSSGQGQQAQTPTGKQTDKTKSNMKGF
T3 sequence (Q96SW2 whole entry): as the sequence (Q96SW2 whole entry) above
T3 sequence (Q16531 whole entry partner): as the sequence (Q16531 whole entry partner) above
Procedure: as §1, §2, §3, §4, §5

IL-2 = IL-2 inhibition assay, anti-CD3 (OKT3) stimulated PBMCs, Mesoscale IL-2 analysis; assay type: cell-based, human; settings: Homo sapiens, PBMC, PBMCs on anti-CD3, 24 h, fold difference from DMSO control, read-out: IL-2, % Induction compared to DMSO
Procedure: For the IL-2 analysis, 96 well plates were precoated with 1 μg/mL anti-human CD3 antibody (OKT3, eBioscience Inc., San Diego, Calif.). After washing with PBS, the indicated compound was added (50 μL/well) followed by PBMCs diluted at 3-4 million cells/mL (150 μL/well). Plates were incubated for 24 h and the supernatants collected for Mesoscale IL-2 analysis. IL-2 activity is measured as fold difference from the DMSO control. […]
In Table 4, the fold-change values are reported as “A”, “B”, “C”, or “D”. “A” represents a fold-change value of equal to or less than 0.5 (value≤0.5); “B” represents a fold-change value of more than 0.5 and equal to or less than 1 (0.5<value≤1); “C” represents a fold-change value of more than 1 and less than 1.5 (1<value<1.5); and “D” represents a fold-change value of equal to or more than 1.5 (value≥1.5).

IL-1β = IL-1β inhibition, LPS-induced PBMCs or CD14+ monocytes, Meso Scale assay; assay type: cell-based; settings: LPS 100 ng/mL 18-24 h, read-out: % Inhibition compared to DMSO, IL-1β; for inhibition at 1 µM: tested at 1 μM; for inhibition at 10 µM: tested at 10 μM
Procedure: as §6, §7

IL-6 = IL-6 inhibition, LPS-induced PBMCs or CD14+ monocytes, Meso Scale assay; assay type: cell-based; settings: LPS 100 ng/mL 18-24 h, read-out: % Inhibition compared to DMSO, IL-6; for inhibition at 1 µM: tested at 1 μM; for inhibition at 10 µM: tested at 10 μM
Procedure: as §6, §7

T1 sequence (O43924 whole entry): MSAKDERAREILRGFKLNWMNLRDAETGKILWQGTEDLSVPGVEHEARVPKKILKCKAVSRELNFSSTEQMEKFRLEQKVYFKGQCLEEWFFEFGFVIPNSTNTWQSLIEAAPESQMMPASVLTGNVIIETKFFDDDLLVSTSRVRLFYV
T1 sequence (Q96SW2 whole entry): as the sequence (Q96SW2 whole entry) above
T1 sequence (Q16531 whole entry partner): as the sequence (Q16531 whole entry partner) above

SMILES	Dmax at 1 µM (PDE6D) [%]	Dmax at 1 µM (Ikaros) [%]	inhibition at 1 µM (TNFα) [%]	inhibition at 10 µM (TNFα) [%]	Dmax at 1 µM (CK1α) [%]	fold induction at 1 µM (IL-2)	fold induction at 10 µM (IL-2)	inhibition at 1 µM (IL-1β) [%]	inhibition at 10 µM (IL-1β) [%]	inhibition at 1 µM (IL-6) [%]	inhibition at 10 µM (IL-6) [%]
O=C1CCC(N2Cc3c(cc(F)cc3C3CCCCC3)C2=O)C(=O)N1 (stereo not shown) [Compound 3]	≥ 75	25 to 50	< 10	< 10	50 to 75	≤ 0.5	≤ 0.5	< 10	< 10	< 10	< 10
O=C1CCC(N2Cc3c(cccc3C3CC3)C2=O)C(=O)N1 (stereo not shown) [Compound 13]	50 to 75	50 to 75	> 50	> 50	50 to 75	≥ 1.5	≥ 1.5	25 to 50	25 to 50	< 10	< 10
CC1(C)CCC(c2cc(F)cc3c2CN(C2CCC(=O)NC2=O)C3=O)CC1 (stereo not shown) [Compound 7]	≥ 75	< 25	< 10	10 to 25	< 25	1 to 1.5	0.5 to 1	< 10	< 10	10 to 25	< 10
Cc1c(F)cc2c(c1C1CCCC1)CN(C1CCC(=O)NC1=O)C2=O (stereo not shown) [Compound 21, 3-(4-Cyclopentyl-6-fluoro-5-methyl-1-oxoisoindolin-2-yl) piperidine-2,6-dione]	≥ 75	25 to 50	< 10	25 to 50	25 to 50	≤ 0.5	≤ 0.5	< 10	< 10	< 10	< 10
CC(C)c1cc(F)cc2c1CN(C1CCC(=O)NC1=O)C2=O (stereo not shown) [Compound 34, 3-(6-fluoro-4-isopropyl-1-oxoisoindolin-2-yl)piperidine-2,6-dione]	≥ 75	< 25	25 to 50		50 to 75	≤ 0.5		< 10		< 10	
C[C@H](c1cc(F)cc2c1CN(C1CCC(=O)NC1=O)C2=O)C(F)(F)F (stereo partly shown) [Compound 23]	25 to 50	< 25	< 10	25 to 50	50 to 75	0.5 to 1	0.5 to 1	< 10	< 10	< 10	< 10
C[C@H](c1cccc2c1CN(C1CCC(=O)NC1=O)C2=O)C(F)(F)F (stereo partly shown) [Compound 31]	< 25	50 to 75	< 10	10 to 25	25 to 50	0.5 to 1	0.5 to 1	< 10	< 10	< 10	< 10
